In patent US7166695B2, “Affinity markers for human serum albumin” (ConjuChem Biotechnologies Inc., priority 1997, dated 2007):
Where a SMILES comes first, the peptide text is derived from it. [ ]: non-standard residue; d: D form. The star is where a group is joined. X1 = O=C1N[C@H]2[C@H](CS[C@H]2CCCCC(=O)Oc2ccc(C(=O)*)cc2)N1; Benzoyl(4-OH) = O=C(c1ccc(O)cc1)*

Legend:
pig albumin = biological target: T1, pig albumin (Sus scrofa, UniProt P08835); assay: Biotinylation of whole blood; SDS-PAGE and immunoblot with peroxidase labeled streptavidin; format: biochemical; conditions: samples of whole blood
T1 construct: Whole blood was incubated with biotin ester for 1 h at room temperature, then plasma was extracted by centrifugation; from tissue; host or cells: pig whole blood
T1 sequence (P08835 25-607): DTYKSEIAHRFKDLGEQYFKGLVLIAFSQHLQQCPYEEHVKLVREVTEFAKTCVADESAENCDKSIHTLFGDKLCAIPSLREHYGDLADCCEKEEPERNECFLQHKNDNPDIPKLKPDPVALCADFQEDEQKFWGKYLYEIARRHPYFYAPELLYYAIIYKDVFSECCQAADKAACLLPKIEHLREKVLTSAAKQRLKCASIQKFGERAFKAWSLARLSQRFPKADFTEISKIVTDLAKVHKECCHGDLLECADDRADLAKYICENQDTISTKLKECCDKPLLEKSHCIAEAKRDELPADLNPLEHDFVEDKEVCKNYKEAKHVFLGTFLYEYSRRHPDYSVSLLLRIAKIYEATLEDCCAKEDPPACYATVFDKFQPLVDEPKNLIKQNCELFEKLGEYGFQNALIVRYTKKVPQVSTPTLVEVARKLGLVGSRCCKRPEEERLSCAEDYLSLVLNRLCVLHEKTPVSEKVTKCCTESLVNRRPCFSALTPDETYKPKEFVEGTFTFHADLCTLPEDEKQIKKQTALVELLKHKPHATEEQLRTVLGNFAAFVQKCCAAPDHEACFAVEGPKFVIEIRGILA

dog albumin = biological target: T2, dog albumin (Canis lupus familiaris, UniProt P49822); assay: as above; format: biochemical; conditions: samples of whole blood
T2 construct: Whole blood was incubated with biotin ester for 1 h at room temperature, then plasma was extracted by centrifugation; from tissue; host or cells: dog whole blood
T2 sequence (P49822 25-608): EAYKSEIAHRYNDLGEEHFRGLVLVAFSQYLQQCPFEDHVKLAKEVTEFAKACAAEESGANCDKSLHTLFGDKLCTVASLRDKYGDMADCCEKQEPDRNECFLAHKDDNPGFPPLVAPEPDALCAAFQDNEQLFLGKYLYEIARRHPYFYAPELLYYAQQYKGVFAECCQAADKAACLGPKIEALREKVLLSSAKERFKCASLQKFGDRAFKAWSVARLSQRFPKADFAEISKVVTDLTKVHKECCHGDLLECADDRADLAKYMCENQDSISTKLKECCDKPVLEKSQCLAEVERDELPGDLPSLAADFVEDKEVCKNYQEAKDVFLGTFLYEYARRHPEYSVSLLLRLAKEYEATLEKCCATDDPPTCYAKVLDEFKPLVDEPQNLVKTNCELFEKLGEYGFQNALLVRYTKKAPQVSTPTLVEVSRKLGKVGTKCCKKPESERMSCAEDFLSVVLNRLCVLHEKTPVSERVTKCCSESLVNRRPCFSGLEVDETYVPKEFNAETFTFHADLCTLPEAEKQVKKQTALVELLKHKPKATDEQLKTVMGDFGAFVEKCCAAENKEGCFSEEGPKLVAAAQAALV

HSA [1] = biological target: T3, HSA (Homo sapiens, UniProt P02768); assay: Kinetic study by ELISA capture in human plasma; format: biochemical; conditions: 100 μM in human plasma, RT, 0-60 min
Description: The samples were then allowed to incubate at RT for 0, 5, 10, 15, 30 and 60 min, when 5 μL of each sample was diluted with 295 μL PBS and kept at −20° C. before use. The samples were then diluted to 2 μg/mL using PBS and transferred to an ELISA plate previously coated with polyclonal anti-human serum albumin (procedure described above). The plates were then rinsed with PBS-Tween 20 (0.05%) three times, and then with PBS. Goat polyclonal anti-biotin (Pierce) (1:200, v/v, in PBS containing 0.05% BSA) was then added to the plates, allowed to incubate for 1 h at RT, rinsed with PBS-Tween 20 (0.05%) three times, and then with PBS. The plates were then treated with 100 μL of peroxidase-conjugated rabbit anti-goat IgG (Jackson Immuno Research) diluted 1/100,000 with PBS for 20 min at RT. The plates were then rinsed with PBS-Tween 20 (0.05%) three times, and then with PBS. […] The plates were then read on a SpectraMax 250 at λ 490 nm.
At each time mentioned in the figure, 2 μg/mL of each sample was captured on an ELISA plate initially coated with polyclonal anti-HSA, treated with goat polyclonal anti-biotin, followed by peroxidase conjugated rabbit anti-goat IgG and OD read at 490 nm using SpectraMax 250.

fraction V HSA [2] = biological target: T4, fraction V HSA (Homo sapiens, UniProt P02768); assay: Kinetic studies using HPLC, reaction with fraction V HSA in PBS; format: biochemical; conditions: 100 μM compound and 600 μM HSA in PBS
T4 construct: purchased Calbiochem
From the text: (§1) The chromatograms were each integrated using identical data parameters and resulting calculated areas under each peak converted to concentrations and plotted against time.
FIG. 11 plots the rate of disappearance of biotin-OPh-CO—NH2 vs. time and the rate of appearance of the leaving group, HO-Ph-CO—NH2, vs. time.
Due to overlapping peaks in the HPLC chromatogram, the rate of disappearance of biotin-OPh-CO-FlYEE-NH2 cannot be determined.

commercial human plasma = assay: Kinetic studies using HPLC, reaction in commercial human plasma; format: biochemical; conditions: 100 μM in commercial human plasma
Description: as §1
FIG. 12 plots the rate of appearance of the leaving group, HO-Ph-CO-FlYEE-NH2, vs. time (seconds) as a result of the reaction of 100 μM biotin-OPh-CO-FlYEE-NH2 in commercial human plasma. Due to overlapping peaks in the HPLC chromatogram, the rate of disappearance of biotin-OPh-CO-FlYEE-NH2 cannot be determined.

[3] = Hydrolysis in PBS followed by HPLC; format: physicochemical; conditions: pH 7.4, RT (FIG. 13), read-out: half-life of hydrolysis of the phenol ester (converted)
From the text: as §1

fraction V HSA [4] = biological target: T4, fraction V HSA; assay: Competition ELISA test; format: binding
Description: A solution of 100 μL rabbit polyclonal anti-human serum albumin. (Boehringer) diluted at 1/5000 in PBS was coated overnight at 4° C. onto ELISA plates (Nunc). These plates were then saturated with 5% BSA (Sigma) in PBS for 2 h at RT. For the competition test, varying concentrations of HO-Ph-CO-FlYEE-NH2, 44 μM biotin-OPh-CO-FlYEE-NH2, and 15 μM of fraction V HSA were incubated for 1 h at 37° C. To assess the ability of biotin-OPh-CO-FlYEE-NH2 to displace HO-Ph-CO-FlYEE-NH2, varying concentrations of HO-Ph-CO-FlYEE-NH2 were incubated with HSA for 1 h at 37° C., then 44 μM of biotin-OPh-CO-FlYEE-NH2 was added and allowed to incubate at 37° C. for 1 h. The reaction mixtures were then centrifuged through 30 kDa Centricon tubes (Sarthorious) to a volume of 50 μL, diluted with 500 μL of PBS, then re-concentrated to 50 μL. This process was then repeated and transferred to the ELISA plate previously coated with polyclonal anti-human serum albumin (procedure described above). These plates were then rinsed with PBS-Tween 20 (0.05%) three times, then with PBS. Peroxidase-labeled streptavidin (1:500, v/v, in PBS containing 0.05% BSA) was then added to the plates, allowed to incubate for 20 min at RT, rinsed with PBS-Tween 20 (0.05%) three times, and then with PBS. […] The plates were then read on a SpectraMax 250 at λ 490 nm.
FIG. 8 plots optical density as a function of the concentration of HO-Ph-CO-FlYEE-NH2. […] The HSA was captured on an ELISA plate initially coated with polyclonal anti-HSA, treated with peroxidase labeled streptavidin and OD read at 490 nm using SpectraMax 250.
In these experiments, solutions of 0 to 50 molar excess HO-Ph-CO-FlYEE-NH2 and 15 μM fraction V HSA were incubated for 1 h at RT when 44 μM of biotin-OPh-CO-FlYEE-NH2, was added and reaction incubated for 1 h at 37° C. The HSA was captured on an ELISA plate initially coated with polyclonal anti-HSA, treated with peroxidase labeled streptavidin and OD read at 490 nm using SpectraMax 250.

HSA [5] = biological target: T3, HSA; assay: Mass spectral analysis of tryptic digest of HSA:LC-biotin; conditions: HPLC peaks at 78 and 85 min
Description: LC-biotin is biotin-NH—(CH2)5—C(O)—.
The specificity with which biotin-OPh-CO-FlYEE-NH2 reacts with a specific lysine residue on HSA was determined by mass spectral analysis of a tryptic digest of LC-biotin conjugated to HSA by LC-biotin-OPh-CO-FlYEE-NH2 (FIG. 15). Using LC -biotin-OPh-CO-FlYEE-NH2 instead of biotin-OPh-CO-FlYEE-NH2 facilitated a larger mass separation in the mass spectrum and identification of HSA from HSA:LC-biotin. […] This mass accounts only for the addition of one LC-biotin and since the fragment at 78 min contains only one Lys residue and LC-biotin is attached to it, and this peptide sequence contains the previous sequence, the only lysine residue in this sequence where biotin could be attached is Lys519.

[6] = biological target: human serum albumin (HSA) (Homo sapiens, UniProt P02768); assay: Biotinylation of whole blood, plasma or serum; SDS-PAGE and immunoblot with peroxidase labeled streptavidin; conditions: 100 or 600 μM, 1 h at 37° C.
Description: The reaction samples were allowed to incubate for 1 h at RT or 37° C. For the whole blood sample, the plasma was extracted from whole blood at the end of reaction. […] These additional samples were diluted 1/60 in PBS and analyzed directly on SDS-PAGE, immunoblot, ELISA, or frozen at −20° C. until use. As positive controls, 50 μM of NHS-LC-biotin (Pierce) and 100 μM of D-biotin were used. Protein assay was performed using BCA kit (Pierce).
Proteins were separated by SDS-PAGE under non-reducing conditions (Laemmli, 1970), transferred to 0.1 μM-pore nitrocellulose sheets (Schleicher and Schuell) and probed with peroxidase labeled streptavidin (Jackson Immuno Research).
Whole blood was incubated with biotin ester for 1 h at room temperature, then plasma was extracted by centrifugation. A 5 μg sample was separated by 8% SDS-PAGE and transferred onto blot. The immunoblot was blocked with 5% skim milk (Nestle) and then incubated with peroxidase labeled-streptavidin diluted at 1/5000 in PBS-BSA 0.5% for 20 min at RT. An ECL kit was used to detect peroxidase labeled-streptavidin on Hyperfilm ECL (Amersham), exposed for 1 min.
A 5 μg portion of each sample was separated by 8% SDS-PAGE and transferred onto blot. The immunoblot was blocked with 5% skim milk (Nestle) and then incubated with peroxidase labeled-streptavidin diluted at 1/5000 in PBS-BSA 0.5% for 20 min at RT. […]

## CC(C)C[C@@H](NC(=O)[C@H](Cc1ccccc1)NC(=O)c1ccc(OC(=O)CCCC[C@@H]2SC[C@@H]3NC(=O)N[C@@H]32)cc1)C(=O)N[C@@H](Cc1ccc(O)cc1)C(=O)N[C@@H](CCC(=O)O)C(=O)N[C@@H](CCC(=O)O)C(N)=O [biotin-OPh-CO-FlYEE-NH2] (X1-F[dL]YEE-NH2)
Pig albumin
  specificity of labeling for pig albumin (immunoblot): not for pig or dog albumin
Dog albumin
  specificity of labeling for dog albumin (immunoblot): not for pig or dog albumin
HSA [1]
  rate of biotin addition (optical density vs time, FIG. 10): accelerated rate of biotin addition
Fraction V HSA [2]
  half-reaction: about 125 min
Commercial human plasma
  half-reaction: about 6 min
Commercial human plasma; after five minutes (FIG. 12)
  portion reacted with protein target: more than half
[3]
  half-life: ~173 h

## HO-Ph-CO-FlYEE-NH2 ({Benzoyl(4-OH)}-F[dL]YEE-NH2) [leaving group liberated from biotin-OPh-CO-FlYEE-NH2]
Fraction V HSA [4]; 0-100 molar excess, 44 μM biotin-OPh-CO-FlYEE-NH2, 15 μM HSA, 1 h at 37° C.
  direct competition with biotin-OPh-CO-FlYEE-NH2 for HSA (FIG. 8): occupies a specific binding site on HSA
Fraction V HSA [4]; 0 to 50 molar excess incubated with 15 μM HSA for 1 h, then 44 μM biotin-OPh-CO-FlYEE-NH2 1 h at 37° C.
  effect of prior incubation with HSA on binding of biotin-OPh-CO-FlYEE-NH2 (FIG. 9): prevents binding of biotin-OPh-CO-FlYEE-NH2
Fraction V HSA [4]; between 1 to 5 molar excess of HO-Ph-CO-FlYEE-NH2
  effect of competition on rate of reaction: very minor effect on the rate of reaction

## LC-biotin-OPh-CO-FlYEE-NH2
HSA [5]
  lysine residue of HSA where LC-biotin is attached: Lys519

## biotin-OPh-CO—NH2 [reference compound]
HSA [1]
  rate of biotin addition (optical density vs time, FIG. 10): on the base line
Fraction V HSA [2]
  half-reaction: about 330 min
[6]
  selectivity of labeling (immunoblot, FIG. 7): does not label selectively
